Test results taken from paper PMC11988817, “Prediction and Prioritisation of Novel Anthelmintic Candidates from Public Databases Using Deep Learning and Available Bioactivity Data Sets” (International Journal of Molecular Sciences, 2025).
Like-named read-outs stand apart in the source and are kept apart here.

Tests used:
[1] = tested on: Haemonchus contortus; conditions: cited from earlier work
[2] = tested on: exsheathed third-stage larvae (xL3s) of H. contortus; assay: xL3 larval motility dose-response assay; set-up: species or system Haemonchus contortus; conditions: for inhibition at 50 µM / inhibition at up to 50 µM: read-out: Larval motility maximal inhibition (MI; MMI) (converted); for IC50: read-out: Larval Motility IC50; for inhibition at 50 µM / inhibition at up to 50 µM / Larval motility maximal inhibition (MI; MMI): at 50 µM; for inhibition of xL3 motility (in words): dose-response up to 50 µM
Method: (§1) The prioritised compounds were purchased from MolPort and evaluated for their activity by estimating their IC50 values and MMIs against xL3s of H. contortus (Haecon-5 strain) using an established method. In brief, xL3s were dispensed in 96-well plates (cat. no. 3596; Corning, Corning, NY, USA) at a density of 300 xL3s per well with individual, serially diluted compounds (9-points; 2-fold serial dilution; 50 µM to […]), in a final volume of 100 µL of LB* (= sterile lysogenic broth [LB] supplemented with 100 IU/mL penicillin, 100 µg/mL streptomycin and 0.25 µg/mL amphotericin B [Fungizone®, Thermo Fisher Scientific, Waltham, MA, USA]). Plates containing xL3s were incubated at 38 °C, 10% (v/v) CO2 and >90% relative humidity. Following 168 h of incubation, the compounds were tested by three independent experiments in triplicate. The xL3s motility and development to fourth-stage larvae (L4s) were measured with reference to two commercial anthelmintics, monepantel (Zolvix^TM; Elanco, Greenfield, IN, USA) and moxidectin (Cydectin®; Virbac, Carros, France). Negative control wells containing 0.25% (v/v) DMSO were present on all plates. […] Compound concentrations were log10-transformed and fitted using a variable slope four-parameter equation, constraining the highest value to 100% and employing a least squares (ordinary) fit model as implemented in GraphPad Prism software (v.10.0.1). A one-way analysis of variance (ANOVA) with a Dunnett’s multiple comparison test was used to establish statistically significant differences in larval motility and in development.

[3] = tested on: exsheathed third-stage larvae (xL3s) of H. contortus; assay: xL3 larval development (to L4) assay; set-up: species or system Haemonchus contortus; conditions: for IC50: Haemonchus contortus, read-out: Larval Development IC50
Method: as §1

[4] = tested on: exsheathed third-stage larvae (xL3s) of H. contortus; assay: abnormal larval phenotype / worm morphology assessment; set-up: species or system Haemonchus contortus; key to Abnormal Phenotype: curved (Cur); evisceration (Evi); coiled (Coi); conditions: 168 h; for Abnormal Phenotype: exhibited at 50 µM
Method: as §1

[5] = HepG2 cytotoxicity (CellTiter-Glo); format: cell-based; conditions: human
Method: The cytotoxicity of the prioritised compounds 3, 4 and 6 on human hepatoma (HepG2) cells was evaluated as described previously. In brief, HepG2 cells were first cultured (in an incubator at 5% (v/v) CO2, 37 °C and >90% humidity) in Dulbecco’s modified Eagle’s medium (DMEM), supplemented with 5% (v/v) foetal bovine serum (FBS). The test compounds were serially diluted (10-points; 2-fold serial dilution; top concentration of 50 μM) in DMEM plus 10% (v/v) FBS, adjusted to a DMSO concentration of 0.5% (v/v) and arrayed across a 384-well plate. Bortezomib (10 μM) was used as a positive control, and 0.5% DMSO was used as a negative control. HepG2 cells (1 × 10^3 cells per 50 μL of DMEM plus 10% FBS) were then seeded into wells of the assay plate; the plates were then incubated in 5% (v/v) CO2, 37 °C and >90% humidity for 48 h. Subsequently, cell proliferation was assessed using CellTiter-Glo (Promega, Fitchburg, WI, USA) and normalised against the negative controls and expressed as a percentage. All compounds were tested in duplicate. The half-maximal cytotoxic (CC50) values were calculated using the software Dotmatics (v.5.3) and Spotfire (v.7.11.1) employing a non-linear regression four-parameter fit analysis.

[6] = tested on: adult females of H. contortus; assay: adult female motility time-course assay; set-up: species or system Haemonchus contortus; conditions: 50 µM
Method: (§2) Subsequently, the selected compounds evaluated for in vitro activity against larvae were further assessed for their activity against adult females and males of H. contortus using an established motility assay. In brief, the compound was dispensed in 24-well plates (cat. no. 3524; Corning) at a concentration of 50 μM in 500 μL of RPMI* (RPMI 1640 medium supplemented with 4 mM L-glutamine, 100 U/mL penicillin, 100 µg/mL streptomycin and 0.25 µg/mL amphotericin B). Two positive controls, monepantel and moxidectin, were each prepared in the same manner, and a negative control containing 0.25% (v/v) DMSO was included on all plates. Three adult females or males were added to each of the wells containing either the test compound or a control compound and then incubated at 38 °C, 10% (v/v) CO2 and >90% relative humidity for 24 h. The compounds were tested in triplicate. A video recording (30 sec) of each well was taken at 0 h, 3 h, 6 h, 12 h and 24 h during the entire incubation period to assess the reduction in worm motility—scored as 3 (‘good’), 2 (‘low’), 1 (‘very low’) or 0 (‘none’). For each test or control compound, the motility scores for each of the triplicate wells were calculated, normalised with reference to the negative control (100% motility), and recorded as a percentage. A two-way ANOVA with Dunnett’s multiple comparison test was used to establish statistically significant differences against the DMSO control in worm motility for each time point.

[7] = tested on: adult males of H. contortus; assay: adult male motility time-course assay; set-up: species or system Haemonchus contortus; conditions: 50 µM
Method: as §2

[8] = Haemonchus contortus, 168 h, xL3s, 168 h
[9] = Haemonchus contortus, 168 h, xL3s, 168 h of exposure, three independent assays in triplicate

COc1ccc(-c2cnc3c(n2)CCCC3)cc1C#N [APDB C798]
antiparasitic activity (in words) ([1]; tetrahydroquinoxalines): antiparasitic activity was observed

CC(C)Oc1cccc(-c2cnc3c(n2)CCCC3)c1 [APDB C802]
antiparasitic activity (in words) ([1]; tetrahydroquinoxalines): antiparasitic activity was observed

CC(C#N)(COc1cc(C#N)ccc1C(F)(F)F)NC(=O)c1ccc(OC(F)(F)F)cc1 (stereo not shown) [APDB C823]
antiparasitic activity (in words) [1]: possess antiparasitic activity

COC(=O)c1ccc(-c2cc(C#N)ccn2)cc1 [Compound 1, Methyl 4-(4-cyanopyridin-2-yl)benzoate]
inhibition at 50 µM [2, 8]: 50%
IC50 [2, 9]: 6.2 ± 0.3 µM
inhibition of larval development (in words) ([3]; 168 h): not inhibited
IC50 ([3]; xL3s, 168 h of exposure): > 50 µM
Larvae with abnormal phenotype (exhibited at 50 µM) [4]: 20%
Abnormal Phenotype [4]: curved (Cur) and Evi

N=C(N)c1ccc(N2CCOCC2)cc1 [Compound 2, 4-(Morpholin-4-yl)benzene-1-carboximidamide]
inhibition at up to 50 µM [2, 8]: 53%
IC50 [2, 9]: 1.8 ± 1.4 µM
IC50 ([3]; xL3s, 168 h of exposure): > 50 µM
Abnormal Phenotype [4]: nil

COc1ccc(-c2cncc(C#N)n2)cc1OC [Compound 3, 6-(3,4-Dimethoxyphenyl)pyrazine-2-carbonitrile]
inhibition of xL3 motility (in words) ([2]; 168 h): inhibition of H. contortus motility was only observed
inhibition at 50 µM [2, 8]: 54%
IC50 [2, 9]: 7.9 ± 1.9 µM
IC50 ([3]; xL3s, 168 h of exposure): 37.1 µM
Larval development maximal inhibition (MI) ([3]; xL3s, 168 h of exposure): 100%
Larvae with abnormal phenotype (exhibited at 50 µM) [4]: 80%
altered worm morphology / abnormal phenotype (in words) [4]: induced an abnormal phenotype
Abnormal Phenotype [4]: Evi
CC50 at 48 h ([5]; HepG2 cells (human hepatoma)): > 40 µM

c1ccc(-c2cnc3ccccc3n2)cc1 [Compound 4, 2-Phenylquinoxaline]
IC50 ([2]; Haemonchus contortus, 168 h): 5.8 ± 4.1 µM
IC50 ([3]; 168 h): > 50 µM
Abnormal Phenotype [4]: nil
motility reduction, adult females, 24 h [6]: 40%
motility reduction, adult males, 24 h [7]: 50%
CC50 at 48 h ([5]; HepG2 cells): > 40 µM

O=C(CCC(F)(F)F)NCCc1cnccn1 [Compound 5, 4,4,4-Trifluoro-N-[2-(pyrazin-2-yl)ethyl]butanamide]
inhibition at 50 µM [2, 8]: 65%
IC50 [2, 9]: 37.5 ± 2.5 µM
IC50 ([3]; xL3s, 168 h of exposure): > 50 µM
Abnormal Phenotype [4]: nil

N#Cc1ccc(OCc2cccc(F)c2)cc1 [Compound 6, 4-[(3-Fluorophenyl)methoxy]benzonitrile]
inhibition of xL3 motility (in words) ([2]; 168 h): inhibition of H. contortus motility was only observed
inhibition at 50 µM [2, 8]: 100%
IC50 [2, 9]: 7.4 ± 9.4 µM
IC50 ([3]; xL3s, 168 h of exposure): 23.6 µM
Larvae with abnormal phenotype (exhibited at 50 µM) [4]: 100%
Abnormal Phenotype [4]: Evi
motility reduction, adult females, 6 h [6]: 33%
motility reduction, adult females, 12 h [6]: 50%
motility reduction, adult females, 24 h [6]: 75%
effect on adult female motility (in words) ([6]; within 24 h): significant reduction in the motility
motility reduction, adult males, 6 h [7]: 50%
motility reduction, adult males, 12 h [7]: 75%
motility reduction, adult males, 24 h [7]: 100%
effect on adult male motility (in words) ([7]; within 24 h): complete immobilisation
CC50 at 48 h ([5]; HepG2 cells (human hepatoma)): > 40 µM

N#Cc1ccc(N2CCC(O)CC2)cc1 [Compound 7, 4-(4-Hydroxypiperidin-1-yl)benzonitrile]
inhibition at 50 µM [2, 8]: 70%
IC50 [2, 9]: 2.1 ± 3.5 µM
IC50 ([3]; xL3s, 168 h of exposure): > 50 µM
Abnormal Phenotype [4]: nil

CC12CN3CN(C1)CC(c1ccccc1)(C3)C2=O [Compound 8, (1S,5R,7S)-5-Methyl-7-phenyl-1,3-diazatricyclo[3.3.1.1³,⁷]decan-6-one]
inhibition at 50 µM [2, 8]: 42%
IC50 [2, 9]: 0.8 ± 1.6 µM
IC50 ([3]; xL3s, 168 h of exposure): > 50 µM
Abnormal Phenotype [4]: nil

N#Cc1ccc(NC(=O)COCC(=O)NCC(N)=O)cc1 [Compound 9, N-(Carbamoylmethyl)-2-{[(4-cyanophenyl)carbamoyl]methoxy}acetamide]
inhibition at 50 µM [2, 8]: 46%
IC50 [2, 9]: 4.1 µM
IC50 ([3]; xL3s, 168 h of exposure): > 50 µM
Abnormal Phenotype [4]: nil

CC(C)(CO)NCC#Cc1ccccc1 [Compound 10, 2-Methyl-2-[(3-phenylprop-2-yn-1-yl)amino]propan-1-ol]
inhibition at 50 µM [2, 8]: 50%
IC50 [2, 9]: 0.8 ± 1.2 µM
IC50 ([3]; xL3s, 168 h of exposure): > 50 µM
Abnormal Phenotype [4]: nil
motility reduction, adult females, 24 h [6]: 40%

C[C@](C#N)(COc1cc(C#N)ccc1C(F)(F)F)NC(=O)c1ccc(SC(F)(F)F)cc1 [Monepantel, N-[(2S)-2-cyano-1-[5-cyano-2-(trifluoromethyl)phenoxy]propan-2-yl]-4-(trifluoromethylsulfanyl)benzamide, reference compound]
inhibition at up to 50 µM [2, 8]: 100%
IC50 [2, 9]: 0.2 ± 0.002 µM
IC50 ([3]; xL3s, 168 h of exposure): 0.4 µM
Larvae with abnormal phenotype (exhibited at 50 µM) [4]: 100%
Abnormal Phenotype [4]: Coi
motility reduction, adult females, 6 h [6]: 67%
motility reduction, adult females, 12 h [6]: 67%
motility reduction, adult females, 24 h [6]: 67%
motility reduction, adult males, 6 h [7]: 67%
motility reduction, adult males, 12 h [7]: 67%
motility reduction, adult males, 24 h [7]: 100%

CO/N=C1\C[C@]2(C[C@@H]3C[C@@H](C/C=C(\C)C[C@@H](C)/C=C/C=C4\CO[C@@H]5[C@H](O)C(C)=C[C@@H](C(=O)O3)[C@]45O)O2)O[C@H](/C(C)=C/C(C)C)[C@H]1C [Moxidectin, (1R,4S,4'E,5'S,6R,6'S,8R,10E,13R,14E,16E,20R,21R,24S)-21,24-dihydroxy-4'-methoxyimino-5',11,13,22-tetramethyl-6'-[(E)-4-methylpent-2-en-2-yl]spiro[3,7,19-trioxatetracyclo[15.6.1.14,8.020,24]pentacosa-10,14,16,22-tetraene-6,2'-oxane]-2-one, reference compound]
IC50 [2, 9]: 0.5 µM
Larval motility maximal inhibition (MI; MMI) ([2]; xL3s, 168 h): 75%
Larval motility maximal inhibition (MI; MMI) ([2]; xL3s, 168 h, listed as moxidectin): 5%
IC50 ([2]; xL3s, 168 h of exposure, three independent assays in triplicate): 0.8 ± 0.4 µM
IC50 ([3]; xL3s, 168 h of exposure): 45 µM
Larval development maximal inhibition (MI) ([3]; xL3s, 168 h of exposure): 100%
Abnormal Phenotype [4]: nil
